These results are taken from PMC6886544.

The test system of one series is A549 cells (KRAS mutant). Nature of the series: CellTiter-Glo viability assay, A549. The conditions noted are these: Homo sapiens, A549, 96 h, read-out: KRAS CTG EC50 A549.
Series [1] in a line: Microsomal stability (phase I), mouse. The format is in vitro ADME. Particulars: mouse liver microsomes, up to 60 minutes, 37 °C. On the procedure: (§1) Microsomal stability (phase I) assay.
(§2) Metabolic stability under oxidative conditions was measured in liver microsomes from different
(§3) time up to 50 minutes (HLM) or 60 minutes (MLM) at 37 °C. Based on the compound half-life t1/2,
(§4) the in vitro intrinsic clearance CLint was calculated. […]

In the next series the target is EGFR-L858R (Homo sapiens, UniProt P00533, L858R). Nature of the series: HTRF KinEASE-TK activity-based assay, EGFR-L858R.
Chain of EGFR-L858R (P00533 25-1210 L858R): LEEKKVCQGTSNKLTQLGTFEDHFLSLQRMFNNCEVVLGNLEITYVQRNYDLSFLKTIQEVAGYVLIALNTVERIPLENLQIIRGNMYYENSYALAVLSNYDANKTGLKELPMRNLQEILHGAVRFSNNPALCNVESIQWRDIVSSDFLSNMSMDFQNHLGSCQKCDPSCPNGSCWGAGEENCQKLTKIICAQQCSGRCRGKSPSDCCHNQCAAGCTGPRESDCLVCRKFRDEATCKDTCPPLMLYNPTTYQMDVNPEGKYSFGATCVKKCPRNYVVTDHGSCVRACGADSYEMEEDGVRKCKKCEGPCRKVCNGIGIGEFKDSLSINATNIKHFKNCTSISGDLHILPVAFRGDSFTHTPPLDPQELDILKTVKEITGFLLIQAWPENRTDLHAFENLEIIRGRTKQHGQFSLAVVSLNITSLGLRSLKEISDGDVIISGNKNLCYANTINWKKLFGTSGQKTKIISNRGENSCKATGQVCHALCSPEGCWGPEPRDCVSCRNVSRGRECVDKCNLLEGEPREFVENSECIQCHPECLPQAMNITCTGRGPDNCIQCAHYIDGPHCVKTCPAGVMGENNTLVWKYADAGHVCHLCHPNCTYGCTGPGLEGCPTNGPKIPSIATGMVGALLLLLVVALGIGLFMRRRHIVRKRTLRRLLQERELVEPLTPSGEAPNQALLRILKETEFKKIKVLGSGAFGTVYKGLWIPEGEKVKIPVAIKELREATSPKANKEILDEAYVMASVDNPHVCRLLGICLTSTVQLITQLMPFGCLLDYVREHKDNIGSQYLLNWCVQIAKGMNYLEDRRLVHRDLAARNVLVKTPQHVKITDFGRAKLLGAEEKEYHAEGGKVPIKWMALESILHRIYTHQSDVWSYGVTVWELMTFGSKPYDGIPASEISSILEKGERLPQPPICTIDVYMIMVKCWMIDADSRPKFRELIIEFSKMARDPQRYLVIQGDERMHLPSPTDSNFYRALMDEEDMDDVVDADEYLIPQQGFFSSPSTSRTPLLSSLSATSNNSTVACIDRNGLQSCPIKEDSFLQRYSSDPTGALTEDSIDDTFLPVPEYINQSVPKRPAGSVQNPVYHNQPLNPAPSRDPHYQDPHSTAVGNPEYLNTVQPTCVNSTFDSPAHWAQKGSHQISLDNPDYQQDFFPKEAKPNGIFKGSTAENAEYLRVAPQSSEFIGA
For the next series, the system named is H358 cells (KRAS mutant). Put plainly: CellTiter-Glo viability assay, H358.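 Further: viable cell number estimated from ATP-dependent luminescence following exposure to serially diluted inhibitor.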 Particulars: Homo sapiens, read-out: KRAS CTG EC50 H358. Type of series: cell-based.
Series [2] concerns H1975 cells (EGFR-L858R/T790M). Put plainly: CellTiter-Glo viability assay, H1975. The conditions noted are these: Homo sapiens, NCI-H1975, 96 h.
The test system of series [3] is A431 cells (EGFR wild type). Put plainly: CellTiter-Glo viability assay, A431. The conditions noted are these: Homo sapiens, A-431, 96 h.
Protocol: (§7) A431, HCC827, H1975, A549 and H358 cells were obtained from the American Type Culture Collection (ATCC). A431 cells were cultured in DMEM high glucose media (Life Technologies, Germany), and HCC827, H1975, A549 as well as H358 cells were cultured in RPMI media (Life Technologies, Germany), both containing L-Glutamine and were supplemented with 10% FBS (GE Healthcare, Austria) and 1% PenStrep (Life Technologies, Germany) in a humidified incubator at 37 °C and 5% CO2.
(§8) Cells were seeded at cell numbers that assure linearity and optimal signal intensity (150-300 cells/well, 25 µL) and cultured for 24 hours in serum- and antibiotics-containing media in humidified chambers at 37 °C / 5% CO2. The cells were then treated with EGFR inhibitors in serial
(§9) Afterwards viability studies were carried out using CellTiter-Glo Assay (Promega, USA) that is a homogeneous method of determining the number of viable cells in culture. It is based on quantification of ATP, indicating the presence of metabolically active cells. For these studies, CellTiter-Glo reagent was prepared according to the instructions of the kit and diluted 1:1 with the complete growth medium suitable for the corresponding cell line. Thereon, reagent and assay plates were equilibrated at room temperature for 20 min. Equal volumes of the reagent were added to the volume of culture medium present in each well (25 µL). The plates were mixed for 2 minutes on an orbital shaker to induce cell lysis. The microplates were then incubated at room temperature for 20 minutes for stabilization of the luminescent signal. Following incubation the luminescence was recorded on an EnVision microplate reader (Perkin Elmer) using 500 ms integration time. The data was then analyzed using the Quattro Research Software Suite for EC50-determination. As quality control the Z’-factor was calculated from 16 positive and negative control values. Only assay results showing a Z’-factor ≥0.5 were used for further analysis. All data points were measured in duplicates for each plate and were replicated in at least two plates.
Series [4] deals with HCC827 cells (EGFR-delE746_A750). Nature of the series: CellTiter-Glo viability assay, HCC827.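 Further: luminescence from ATP content as a measure of metabolically active cells, in RPMI with 10% FBS, compound added as serial dilutions after 24 h of preculture.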 Particulars: Homo sapiens, read-out: EGFR CTG EC50 HCC827. The format is cell-based.
In a further series the target is EGFR-wt (Homo sapiens, UniProt P00533). Nature of the series: HTRF KinEASE-TK activity-based assay, EGFR-wt. Particulars: EGFR HTRF IC50 wt, ATP at Km (9.5 µM), 30 min preincubation; mean ± SD of three independent measurements in duplicates.
Chain of EGFR-wt (P00533 25-1210): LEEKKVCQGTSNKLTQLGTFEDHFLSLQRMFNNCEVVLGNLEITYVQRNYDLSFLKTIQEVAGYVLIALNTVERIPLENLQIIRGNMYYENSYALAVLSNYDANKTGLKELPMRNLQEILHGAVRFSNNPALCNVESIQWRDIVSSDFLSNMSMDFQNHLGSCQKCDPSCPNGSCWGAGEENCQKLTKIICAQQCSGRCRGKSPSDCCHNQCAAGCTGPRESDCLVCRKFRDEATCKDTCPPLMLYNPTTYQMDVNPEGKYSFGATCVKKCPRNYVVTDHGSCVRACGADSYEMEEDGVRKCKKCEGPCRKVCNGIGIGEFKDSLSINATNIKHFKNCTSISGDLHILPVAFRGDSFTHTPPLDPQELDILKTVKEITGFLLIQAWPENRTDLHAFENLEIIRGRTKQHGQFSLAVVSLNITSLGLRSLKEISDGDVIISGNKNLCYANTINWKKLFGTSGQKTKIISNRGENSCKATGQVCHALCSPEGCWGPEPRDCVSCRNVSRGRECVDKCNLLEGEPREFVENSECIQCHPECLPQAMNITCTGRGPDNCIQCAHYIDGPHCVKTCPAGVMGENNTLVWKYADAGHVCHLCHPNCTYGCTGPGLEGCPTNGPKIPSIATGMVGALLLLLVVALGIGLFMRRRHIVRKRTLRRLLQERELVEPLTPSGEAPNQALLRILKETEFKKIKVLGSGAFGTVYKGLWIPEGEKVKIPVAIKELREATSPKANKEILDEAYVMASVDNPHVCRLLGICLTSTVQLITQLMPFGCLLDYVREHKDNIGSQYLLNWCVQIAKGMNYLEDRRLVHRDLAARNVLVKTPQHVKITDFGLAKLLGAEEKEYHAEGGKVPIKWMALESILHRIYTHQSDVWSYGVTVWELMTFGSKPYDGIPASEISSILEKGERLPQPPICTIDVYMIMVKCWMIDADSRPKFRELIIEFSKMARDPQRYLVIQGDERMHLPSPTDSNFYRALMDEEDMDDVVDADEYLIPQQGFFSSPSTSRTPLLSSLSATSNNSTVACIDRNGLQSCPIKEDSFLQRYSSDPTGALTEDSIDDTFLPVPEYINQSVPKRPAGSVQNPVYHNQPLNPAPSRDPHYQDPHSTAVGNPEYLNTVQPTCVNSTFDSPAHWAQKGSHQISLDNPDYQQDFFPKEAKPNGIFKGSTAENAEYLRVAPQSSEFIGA
A further series deals with EGFR-L858R/T790M (Homo sapiens, UniProt P00533, L858R/T790M). Nature of the series: HTRF KinEASE-TK activity-based assay, EGFR-L858R/T790M. Particulars: EGFR HTRF IC50 L858R/T790M, ATP at Km (4 µM), 30 min preincubation; mean ± SD of three independent measurements in duplicates.
Chain of EGFR-L858R/T790M (P00533 25-1210 T790M/L858R): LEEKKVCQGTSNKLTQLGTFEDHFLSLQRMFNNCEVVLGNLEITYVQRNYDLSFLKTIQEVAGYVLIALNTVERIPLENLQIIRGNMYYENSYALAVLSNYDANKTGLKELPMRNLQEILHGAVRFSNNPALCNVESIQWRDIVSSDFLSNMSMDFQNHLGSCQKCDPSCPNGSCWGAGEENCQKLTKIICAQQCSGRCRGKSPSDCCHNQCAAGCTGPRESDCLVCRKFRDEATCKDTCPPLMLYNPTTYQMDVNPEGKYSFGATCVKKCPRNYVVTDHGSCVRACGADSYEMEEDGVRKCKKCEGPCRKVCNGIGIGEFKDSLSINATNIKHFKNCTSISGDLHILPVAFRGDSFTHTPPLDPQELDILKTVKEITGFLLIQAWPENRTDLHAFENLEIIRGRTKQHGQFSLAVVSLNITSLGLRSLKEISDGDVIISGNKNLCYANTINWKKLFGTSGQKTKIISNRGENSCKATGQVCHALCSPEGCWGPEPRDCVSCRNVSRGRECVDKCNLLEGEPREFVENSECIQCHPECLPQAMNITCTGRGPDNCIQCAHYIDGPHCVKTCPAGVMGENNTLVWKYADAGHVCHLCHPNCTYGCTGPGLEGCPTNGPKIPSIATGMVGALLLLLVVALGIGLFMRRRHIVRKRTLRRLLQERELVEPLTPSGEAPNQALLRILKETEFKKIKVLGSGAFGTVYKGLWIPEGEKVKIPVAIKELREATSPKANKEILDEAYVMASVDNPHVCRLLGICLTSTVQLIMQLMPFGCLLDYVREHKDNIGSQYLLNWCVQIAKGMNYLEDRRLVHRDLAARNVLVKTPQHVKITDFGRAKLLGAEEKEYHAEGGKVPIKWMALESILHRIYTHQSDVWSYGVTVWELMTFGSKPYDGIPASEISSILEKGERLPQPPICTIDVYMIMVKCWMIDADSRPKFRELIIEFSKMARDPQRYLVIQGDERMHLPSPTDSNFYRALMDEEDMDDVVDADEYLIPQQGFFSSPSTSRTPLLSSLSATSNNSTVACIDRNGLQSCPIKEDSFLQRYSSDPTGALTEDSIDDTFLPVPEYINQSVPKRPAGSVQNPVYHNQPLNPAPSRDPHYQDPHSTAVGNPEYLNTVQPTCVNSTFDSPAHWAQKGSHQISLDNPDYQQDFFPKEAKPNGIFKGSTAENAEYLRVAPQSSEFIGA
Series [5] can be described thus: PAMPA (parallel artificial membrane permeability assay). The conditions noted are these: pH 7.4, 500 µM, 16 hours. The format is in vitro ADME. On the procedure: masses and 0.02 Da for fragment ions. FDR was adjusted to 1% on peptide spectrum match […]
as §1
Metabolic stability under oxidative conditions was measured in liver microsomes from different species by LC/MS-based measuring of depletion of compound at a concentration of 3 µM over time up to 50 minutes (HLM) or 60 minutes (MLM) at 37 °C. Based on the compound half-life t1/2, the in vitro intrinsic clearance CLint was calculated.
Plasma stability was measured by LC/MS-based determination of the percentage of remaining compounds at a concentration of 5 µM after incubation in plasma obtained from different species […]
Assessment of plasma protein binding was measured by equilibrium dialysis by incubating plasma with the compound of interest at a concentration of 5 µM for 6 h at 37 °C followed by LC/MS-based determination of final compound concentrations.
PAMPA (Parallel artificial membrane permeability assay). […]
temperature in a wet chamber, the optical density of the solution in the receiver well was measured between 250 and 500 nm in intervals of 10 nm. The percent flux was calculated from […]

A short description of series [6]: Microsomal stability (phase I), human. The format is in vitro ADME. The conditions noted are these: human liver microsomes, up to 50 minutes, 37 °C. Here is the method: as §1, §2, §3, §4
Another series in a line: Plasma stability, human. The format is in vitro ADME. Particulars: 5 µM, 1 h, 37 °C.
A further series can be described thus: Plasma stability, mouse. Particulars: 5 µM, 1 h, 37 °C. Type of series: in vitro ADME.
The nature of series [7]: Plasma protein binding, mouse. The conditions noted are these: equilibrium dialysis, 37 °C. Type of series: in vitro ADME. On the procedure:
(§5) Assessment of plasma protein binding was measured by equilibrium dialysis by incubating plasma
(§6) based determination of final compound concentrations. […]

The next series can be described thus: Caco-2 assay. Type of series: in vitro ADME. The conditions noted are these: human, Caco-2, 5 μM, pH 7.4, 2 hours; for Papp A→B at 2 h, 5 μM: apical to basolateral, read-out: Caco-2: Papp AB; for Papp B→A at 2 h, 5 μM: basolateral to apical, read-out: Caco-2: Papp BA. Here is the method:
For Caco-2 cell assay, a 10 mM DMSO stock of the compound was diluted to a final concentration of 5 μM in HBSS buffer pH 7.4 and incubated for 2 hours at 37 °C and 5% CO2 on a monolayer of Caco-2 cells (ATCC) that had been grown on a transwell membrane (Millipore, Schwalbach, Germany) for 21 days. The compound concentration was measured in the receiver as well as the donor well. Apparent permeability (Papp) from either the apical to basolateral direction or vice versa […]
is the donor drug concentration at t = 0, and dQ/dt is the amount of drug transported within the given time period of 2 hours. […]

Series [8] can be described thus: Plasma protein binding, human. The format is in vitro ADME. The conditions noted are these: equilibrium dialysis, 37 °C. On the procedure:
as §5, §6

The mark [9] stands for this setting: NCI-H358, H358, 96 hours, CellTiter-Glo.
Setting [10] is: read-out: EGFR CTG EC50 H1975, H1975, 96 hours, CellTiter-Glo.
Where [11] appears, read: read-out: EGFR CTG EC50 A431, A431, 96 hours, CellTiter-Glo.
[12] abbreviates: HCC827, 96 hours, CellTiter-Glo.

Several values for one entry are separate records, joined by “and”; a condition that tells them apart may be missing. Identical values can stand only once. Like-named read-outs stand apart in the source and are kept apart here.

Protocol for A549 cells (KRAS mutant): as §7, §8, §9
Protocol for H358 cells (KRAS mutant): as §7, §8, §9

Take `C=CC(=O)Nc1cccc(-c2c(-c3ccc(N4CCN(C)CC4)cc3)[nH]c3ncn(C4CCCC4)c(=O)c23)c1` [Compound 29i]: the EC50 was 2130 ± 990 nM in the series with A549 cells (KRAS mutant); 1940 ± 45 nM in the series with H358 cells (KRAS mutant) (setting [9]); 263 ± 46 nM in [2] (setting [10]); 502 ± 166 nM in [3] (setting [11]); below 14 nM in series [4] (setting [12]). Also, the microsomal CLint at 3 µM in series [1] amounted to 84 µL/min/mg. The IC50 at EGFR-L858R is below 0.1 nM; against EGFR-wt it was 0.1 nM; against EGFR-L858R/T790M, > 1 nM and 1.2 nM.

Turning to `C=CC(=O)Nc1cccc(-c2c(-c3ccc(N4CCN(C)CC4)cc3)[nH]c3ncn(C4CCCCC4)c(=O)c23)c1` [Compound 29j], the EC50 in the series on A549 cells (KRAS mutant) was 6050 ± 4600 nM; in the series on H358 cells (KRAS mutant) (setting [9]) it was 6270 ± 1270 nM; in series [2] (setting [10]), 77 ± 15 nM; in [3] (setting [11]) it was 1120 ± 656 nM; in series [4] (setting [12]), below 14 nM. The molecule also showed a microsomal CLint at 3 µM in series [1] of 30 µL/min/mg. The IC50 was 0.2 ± 0.1 nM against EGFR-L858R, 0.4 ± 0.1 nM on EGFR-wt and 0.4 ± 0.1 nM against EGFR-L858R/T790M.

`C=CC(=O)Nc1cc(Nc2nccc(-c3cn(C)c4ccccc34)n2)c(OC)cc1N(C)CCN(C)C` [Osimertinib, osimertinib, reference compound]: the EC50 is 1830 ± 259 nM in the series with A549 cells (KRAS mutant); 2840 ± 362 nM in the series with H358 cells (KRAS mutant) (NCI-H358, 96 h); 16 ± 5 nM in series [2] (read-out: EGFR CTG EC50 H1975); […] in [3] (read-out: EGFR CTG EC50 A431); below 14 nM in series [4] (HCC827, 96 h). Moreover, the results for the microsomal CLint at 3 µM in series [1] and in series [6] were 60 µL/min/mg and 4.1 µL/min/mg, respectively. This molecule also gave a PAMPA flux in [5] of 88%. For the same molecule, the Plasma stability in “Plasma stability, human” is listed as 78 %remain; in the series “Plasma stability, mouse”, 75 %remain. The fraction unbound at 6 h, 5 µM in [7] is 0.024; in [8], 0.029. Also, the Papp A→B at 2 h, 5 μM in “Caco-2 assay” stood at 5 ×10⁻⁶ cm/s. Also, the Papp B→A at 2 h, 5 μM in the series “Caco-2 assay” was 6.8 ×10⁻⁶ cm/s.

Turning to `C=CC(=O)Nc1cccc(Oc2nc(Nc3ccc(N4CCN(C)CC4)cc3OC)ncc2Cl)c1` [WZ4002, reference compound], the EC50 with A549 cells (KRAS mutant) worked out at 4000 ± 545 nM; with H358 cells (KRAS mutant) (setting [9]), 4390 ± 512 nM; in series [2] (setting [10]), 97 ± 37 nM; in series [3] (setting [11]), 2140 ± 439 nM; in [4] (setting [12]), 20 ± 6 nM. The microsomal CLint at 3 µM in series [1] stood at 66 µL/min/mg; in series [6] it was 11 µL/min/mg. Moreover, the Plasma stability in the series “Plasma stability, human” was determined as 86 %remain; in the series “Plasma stability, mouse” it was 78 %remain. The fraction unbound at 6 h, 5 µM in series [7] is 0.019; in series [8] it was 0.008. In addition, the Papp A→B at 2 h, 5 μM in “Caco-2 assay” turned out to be 4.9 ×10⁻⁶ cm/s. Besides, the Papp B→A at 2 h, 5 μM in the series “Caco-2 assay” was found to be 11.7 ×10⁻⁶ cm/s.
